Data as given in US11298391B1, “Topical skin health improvement compositions and administrations thereof” (Lorenol Laboratories, Inc., priority 2017, dated 2022).

Tested on: PGE-2
Assay: PGE-2 increase on UVR exposure: control, Retinol and Skin Therapeutic Composition 5 (FIG. 2)
Format: in vivo
Settings: in the presence of UVR
Description: FIG. 2 illustrates an implementation of the reduction and/or inhibition of skin inflammation as a result of topical application of Skin Therapeutic Composition 5.
A night serum may be prepare including Skin Therapeutic Composition 5. FIG. 2 illustrates an implementation of the reduction and/or inhibition of skin inflammation as a result of topical application of Skin Therapeutic Composition 5. […] Skin Therapeutic 5 encourages collagen growth and inhibits the overproduction of PGE-2 when exposed to UVR.

## CC1=C(/C=C/C(C)=C/C=C/C(C)=C/CO)C(C)(C)CCC1 [Retinol]
  PGE-2 change: increase in PGE-2
